{"source": "paper PMC3650853", "about": "(Journal of medicinal chemistry, 2010)", "key": {"[1]": {"target": "mouse CB2 (mCB2) (Mus musculus, UniProt P47936)", "sequence (P47936 whole entry)": "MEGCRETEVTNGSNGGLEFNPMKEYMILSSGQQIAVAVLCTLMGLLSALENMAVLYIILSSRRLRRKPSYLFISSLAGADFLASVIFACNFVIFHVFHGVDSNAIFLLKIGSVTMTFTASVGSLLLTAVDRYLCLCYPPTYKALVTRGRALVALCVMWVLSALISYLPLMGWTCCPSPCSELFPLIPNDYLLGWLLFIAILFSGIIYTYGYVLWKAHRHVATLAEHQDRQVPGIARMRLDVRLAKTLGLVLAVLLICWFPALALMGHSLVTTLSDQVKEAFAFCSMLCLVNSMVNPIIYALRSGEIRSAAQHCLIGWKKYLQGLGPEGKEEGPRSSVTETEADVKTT", "assay": "Radioligand binding, displacement of [3H]CP-55,940 from mouse spleen membranes", "conditions": "for lower affinity for CB2 compared to 6b: mCB2 Ki relative to 6b"}, "[2]": {"tested_on": "rats", "assay": "Antinociception, tail-flick procedure over 6 hours after injection", "conditions": "rat"}, "[3]": {"target": "rCB1 receptor (Rattus norvegicus, UniProt P20272)", "sequence (P20272 whole entry)": "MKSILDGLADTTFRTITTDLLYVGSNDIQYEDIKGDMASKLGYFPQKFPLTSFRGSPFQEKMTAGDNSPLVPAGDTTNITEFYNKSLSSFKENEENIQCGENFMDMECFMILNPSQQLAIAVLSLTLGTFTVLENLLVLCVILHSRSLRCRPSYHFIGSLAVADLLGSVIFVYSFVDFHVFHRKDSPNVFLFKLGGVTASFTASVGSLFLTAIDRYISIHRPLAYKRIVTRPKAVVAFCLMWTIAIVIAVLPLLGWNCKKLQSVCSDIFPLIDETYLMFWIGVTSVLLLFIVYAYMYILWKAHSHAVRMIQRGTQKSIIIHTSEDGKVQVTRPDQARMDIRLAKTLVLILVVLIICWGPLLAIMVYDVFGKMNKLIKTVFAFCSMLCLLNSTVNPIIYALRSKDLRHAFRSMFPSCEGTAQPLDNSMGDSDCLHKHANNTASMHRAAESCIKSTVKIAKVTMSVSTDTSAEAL", "assay_type": "cell-based"}, "[4]": {"tested_on": "rats", "assay": "Hypothermia test, core body temperature over 6 hours after injection", "assay_type": "in vivo", "conditions": "rat, 0.1 mg/kg s.c."}, "[5]": {"target": "rat CB1 (rCB1) (Rattus norvegicus, UniProt P20272)", "sequence (P20272 whole entry)": "as above", "assay_type": "binding"}, "[6]": {"conditions": "six-atom versus seven-atom ω-bromo side chain"}}, "data": [{"smiles": "CCCC/C=C\\C1(c2cc(O)c3c(c2)OC(C)(C)[C@@H]2CCC(=O)C[C@@H]32)CCCC1", "note": "[6a, (6aR, 10aR)-3-[1-(1,2-cis-Hexen-1-yl)-cyclopent-1-yl]-6,6a,7,8,10,10a-hexahydro-1-hydroxy-6,6-dimethyl-9H-dibenzo[b,d]pyran-9-one]", "values": [{"measurement": "lower affinity for CB2 compared to 6b", "setting": "[1]", "result": 5, "unit": "fold"}]}, {"smiles": "CCCCCCC1(c2cc(O)c3c(c2)OC(C)(C)[C@@H]2CC[C@@H](O)C[C@@H]32)CCC1", "note": "[7e-β, (6aR, 9R, 10aR)-3-(1-Hexyl-cyclobut-1-yl)-6a,7,8,9,10,10a-hexahydro-6,6-dimethyl-6H-dibenzo[b,d]pyran-1,9 diol]", "values": [{"measurement": "antinociception, % of the maximum possible effect", "setting": "[2]; 0.1 mg/kg 7e-β after 30-min pretreatment with 1.0 mg/kg rimonabant (SR141716A)", "result": "85.4±5.8", "unit": "%"}, {"measurement": "antinociception, % of the maximum possible effect", "setting": "[2]; 0.1 mg/kg 7e-β after 30-min pretreatment with 3.0 mg/kg rimonabant (SR141716A)", "result": "48.0±10.9", "unit": "%"}, {"measurement": "antinociception, % of the maximum possible effect", "setting": "[2]; 0.1 mg/kg 7e-β alone, different group of animals", "result": 100, "unit": "%"}, {"measurement": "doses with significant antinociceptive effects", "setting": "[2]; s.c., tail-flick", "result": "0.01 to 0.3", "unit": "mg/kg"}, {"measurement": "onset of the antinociceptive effects after injection", "setting": "[2]; s.c., tail-flick", "result": "60 to 120", "unit": "min"}, {"measurement": "time course of antinociceptive effects", "setting": "[2]; s.c., tail-flick, 6 hour test period", "result": "generally increased over the 6 hour test period"}, {"measurement": "EC50", "setting": "[3]", "result": "1.5 ± 0.3", "unit": "nM"}, {"measurement": "functional efficacy at CB1", "setting": "[3]; cAMP assay", "result": "full agonist"}, {"measurement": "onset of drug effect (hypothermia) after injection", "setting": "[4]", "result": "60 to 90", "unit": "min"}, {"measurement": "time of peak effects (hypothermia) after injection", "setting": "[4]", "result": 300, "unit": "min"}, {"measurement": "reduction of core body temperature", "setting": "[4]; from average baseline of 38.48±0.06°C", "result": "up to 4.2±0.5 °C"}]}, {"smiles": "CN1CC[C@]23c4c5ccc(O)c4O[C@H]2[C@@H](O)C=C[C@H]3[C@H]1C5", "note": "[morphine, reference compound]", "values": [{"measurement": "time after injection by which antinociceptive effects were decreasing", "setting": "[2]; s.c., tail-flick", "result": 3, "unit": "h"}, {"measurement": "time of peak antinociceptive effects after injection", "setting": "[2]; s.c., tail-flick", "result": "30 to 120", "unit": "min"}, {"measurement": "antinociceptive effects lower than 7e-β", "setting": "[2]; tail-flick, relative to 7e-β", "result": "approximately 100 fold"}]}, {"smiles": "CCCCCCC1(c2cc(O)c3c(c2)OC(C)(C)[C@@H]2CCC(=O)C[C@@H]32)SCCS1", "note": "[6c, (6aR, 10aR)-3-(2-Hexyl-1,3-dithiolan-2-yl)-6,6a,7,8,10,10a-hexahydro-1-hydroxy-6,6-dimethyl-9H-dibenzo[b,d]pyran-9-one]", "values": [{"measurement": "lower affinity for CB1 compared to 6b", "setting": "[5]; rCB1 Ki relative to 6b", "result": 4, "unit": "fold"}, {"measurement": "lower affinity for CB2 compared to 6b", "setting": "[1]", "result": 44, "unit": "fold"}]}, {"smiles": "CC1(C)Oc2cc(C3(CCCCBr)CCCC3)cc(O)c2[C@@H]2CC(=O)CC[C@H]21", "note": "[15a, (6aR,10aR)-3-[1-(4-Bromobutyl)cyclopentyl]-6,6a,7,8,10,10a-hexahydro-1-hydroxy-6,6-dimethyl-9H-dibenzo[b,d]pyran-9-one]", "values": [{"measurement": "reduction in affinity for CB1", "setting": "[5]; [6]", "result": 13, "unit": "fold"}, {"measurement": "reduction in affinity for CB2", "setting": "[1]; [6]", "result": 5, "unit": "fold"}]}, {"smiles": "CCCC/C=C\\C1(c2cc(O)c3c(c2)OC(C)(C)[C@@H]2CCC(=O)C[C@@H]32)CCC1", "note": "[6d, (6aR, 10aR)-3-[1-(1,2-cis-Hexen-1-yl)-cyclobut-1-yl]-6,6a,7,8,10,10a-hexahydro-1-hydroxy-6,6-dimethyl-9H-dibenzo[b,d]pyran-9-one]", "values": [{"measurement": "selectivity for CB1 over CB2", "setting": "[5]; from Ki rCB1 and mCB2, as stated in text", "result": 11, "unit": "fold"}]}]}
